Source: US20250084095A1, “Aminopyrimidine Derivatives as Cyclin-Dependent Kinase Inhibitors” (Accutar Biotechnology Inc., priority 2023, published 2025)

Assays:
[1] = tested on: Phospho-Rb (Ser807/811) in MCF7 cells; assay: Phospho-Rb expression inhibition in MCF7 cells quantified by in cell Western; assay type: cell-based, human; conditions: Homo sapiens, MCF7, 24 h, 24 hours, in cell Western, read-out: MCF7 pRb IC50
Outline: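 MCF7 cells were seeded at 20,000/well, grown overnight, then treated 24 h at 37 °C with compound dilutions (0.1% DMSO from 1000× stocks). Fixed cells were co-stained for phospho-Rb Ser807/811 and total Rb. Near-infrared dual-channel in-cell Western imaging was the read-out.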

22RV1 cells = assay: Cell growth inhibition of 22RV1 cells (CellTiter-Glo); assay type: cell-based; conditions: Homo sapiens, 22Rv1, 120 h, 5 days, CellTiter-Glo, read-out: 22RV1 Cell Growh GI50
Outline: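 22RV1 cells were plated in RPMI1640 with FBS (20% in one version, 10% in the other) and dosed next day at various concentrations from DMSO stocks. After 5 days at 37 °C, viability was measured by CellTiter-Glo luminescence.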

| IC50 [1] | GI50 (22RV1 cells) | SMILES |
| --- | --- | --- |
| 0.04 to 0.15 µM | ≤ 0.12 µM | CC(C)(O)c1ccnc2c(F)cc(-c3nc(N[C@@H]4C[C@H]5CO[C@H](O5)[C@H]4O)ncc3Cl)cc12 [Compound 251, (1S,3R,4S,5R)-3-((5-chloro-4-(8-fluoro-4-(2-hydroxypropan-2-yl)quinolin-6-yl)pyrimidin-2-yl)amino)-6,8-dioxabicyclo[3.2.1]octan-4-ol] |
| 0.04 to 0.15 µM | 0.45 to 3 µM | Cc1c(-c2nc(N[C@@H]3C[C@H]4CO[C@H](O4)[C@H]3O)ncc2F)sc2cc(CN3[C@@H](C)COC[C@@H]3C)n(C)c(=O)c12 [Compound 215, 6-(((3S,5S)-3,5-dimethylmorpholino)methyl)-2-(5-fluoro-2-(((1S,3R,4S,5R)-4-hydroxy-6,8-dioxabicyclo[3.2.1]octan-3-yl)amino)pyrimidin-4-yl)-3,5-dimethylthieno[3,2-c]pyridin-4(5H)-one] |
| 0.15 to 1 µM | 0.12 to 0.45 µM | CC(C)n1c(-c2cnn(C)c2)nc2c(F)cc(-c3nc(N[C@@H]4C[C@H]5CO[C@H](O5)[C@H]4O)ncc3Cl)cc21 [Compound 187, (1S,3R,4S,5R)-3-((5-chloro-4-(4-fluoro-1-isopropyl-2-(1-methyl-1H-pyrazol-4-yl)-1H-benzo[d]imidazol-6-yl)pyrimidin-2-yl)amino)-6,8-dioxabicyclo[3.2.1]octan-4-ol] |
| 0.15 to 1 µM | 0.45 to 3 µM | CC(C)c1cn(C)c(=O)c2ccc(-c3nc(N[C@@H]4C[C@H]5CO[C@H](O5)[C@H]4O)ncc3Cl)cc12 [Compound 236, 6-(5-chloro-2-(((1S,3R,4S,5R)-4-hydroxy-6,8-dioxabicyclo[3.2.1]octan-3-yl)amino)pyrimidin-4-yl)-4-isopropyl-2-methylisoquinolin-1(2H)-one] |
| 0.15 to 1 µM | 0.12 to 0.45 µM | CC(C)(O)c1cnc2c(F)cc(-c3nc(N[C@@H]4C[C@H]5CO[C@H](O5)[C@H]4O)ncc3Cl)cc2c1 [Compound 253, (1S,3R,4S,5R)-3-((5-chloro-4-(8-fluoro-3-(2-hydroxypropan-2-yl)quinolin-6-yl)pyrimidin-2-yl)amino)-6,8-dioxabicyclo[3.2.1]octan-4-ol] |
| 0.15 to 1 µM | 0.45 to 3 µM | CC(C)n1c(C(C)(C)N2CC(F)(F)C2)nc2c(F)cc(-c3nc(N[C@@H]4C[C@H]5CO[C@H](O5)[C@H]4O)ncc3Cl)cc21 [Compound 222, (1S,3R,4S,5R)-3-((5-chloro-4-(2-(2-(3,3-difluoroazetidin-1-yl)propan-2-yl)-4-fluoro-1-isopropyl-1H-benzo[d]imidazol-6-yl)pyrimidin-2-yl)amino)-6,8-dioxabicyclo[3.2.1]octan-4-ol] |
| 0.15 to 1 µM | 0.45 to 3 µM | CC(C)n1c(C(F)(F)CO)nc2c(F)cc(-c3nc(N[C@@H]4C[C@H]5CO[C@H](O5)[C@H]4O)ncc3Cl)cc21 [Compound 176, (1S,3R,4S,5R)-3-((5-chloro-4-(2-(1,1-difluoro-2-hydroxyethyl)-4-fluoro-1-isopropyl-1H-benzo[d]imidazol-6-yl)pyrimidin-2-yl)amino)-6,8-dioxabicyclo[3.2.1]octan-4-ol] |
| 0.04 to 0.15 µM | 0.45 to 3 µM | CC(C)n1c(C2(F)COC2)nc2c(F)cc(-c3nc(N[C@@H]4C[C@H]5CO[C@H](O5)[C@H]4O)ncc3Cl)cc21 [Compound 170, (1S,3R,4S,5R)-3-((5-chloro-4-(4-fluoro-2-(3-fluorooxetan-3-yl)-1-isopropyl-1H-benzo[d]imidazol-6-yl)pyrimidin-2-yl)amino)-6,8-dioxabicyclo[3.2.1]octan-4-ol] |

The remaining lines, values behind:

| SMILES | IC50 [1] | GI50 (22RV1 cells) |
| --- | --- | --- |
| Cc1c(C(C)(C)O)cnc2c(Cl)cc(-c3nc(N[C@@H]4C[C@H]5CO[C@H](O5)[C@H]4O)ncc3F)cc12 [Compound 283, (1S,3R,4S,5R)-3-((4-(8-chloro-3-(2-hydroxypropan-2-yl)-4-methylquinolin-6-yl)-5-fluoropyrimidin-2-yl)amino)-6,8-dioxabicyclo[3.2.1]octan-4-ol] | ≤ 0.04 µM | ≤ 0.12 µM |
| Cc1c(CN2CC[C@H](O)C2)n(C(C)C)c2cc(-c3nc(N[C@@H]4C[C@H]5CO[C@H](O5)[C@H]4O)ncc3F)ccc2c1=O [Compound 207, 7-(5-fluoro-2-(((1S,3R,4S,5R)-4-hydroxy-6,8-dioxabicyclo[3.2.1]octan-3-yl)amino)pyrimidin-4-yl)-2-(((S)-3-hydroxypyrrolidin-1-yl)methyl)-1-isopropyl-3-methylquinolin-4(1H)-one] | 0.04 to 0.15 µM | ≤ 0.12 µM |
| Cc1c(C)n(C(C)C)c2cc(-c3nc(N[C@@H]4C[C@H]5CO[C@H](O5)[C@H]4O)ncc3F)ccc2c1=O [Compound 190, 7-(5-fluoro-2-(((1S,3R,4S,5R)-4-hydroxy-6,8-dioxabicyclo[3.2.1]octan-3-yl)amino)pyrimidin-4-yl)-1-isopropyl-2,3-dimethylquinolin-4(1H)-one] | 0.04 to 0.15 µM | 0.12 to 0.45 µM |
| CC(C)n1c(-c2ccccc2)nc2c(F)cc(-c3nc(N[C@@H]4C[C@H]5CO[C@H](O5)[C@H]4O)ncc3Cl)cc21 [Compound 163, (1S,3R,4S,5R)-3-((5-chloro-4-(4-fluoro-1-isopropyl-2-phenyl-1H-benzo[d]imidazol-6-yl)pyrimidin-2-yl)amino)-6,8-dioxabicyclo[3.2.1]octan-4-ol] | 0.04 to 0.15 µM | 0.12 to 0.45 µM |
| C[C@@H]1COc2c(-c3nc(N[C@@H]4C[C@H]5CO[C@H](O5)[C@H]4O)ncc3Cl)cc(F)c3nc(C(C)(C)O)n1c23 [Compound 38, (1S,3R,4S,5R)-3-((5-chloro-4-((R)-8-fluoro-2-(2-hydroxypropan-2-yl)-3-methyl-3,4-dihydro-5-oxa-1,2a-diazaacenaphthylen-6-yl)pyrimidin-2-yl)amino)-6,8-dioxabicyclo[3.2.1]octan-4-ol] | ≤ 0.04 µM | 0.12 to 0.45 µM |
| CC(C)n1c(N2CCOC2=O)nc2c(F)cc(-c3nc(N[C@@H]4C[C@H]5CO[C@H](O5)[C@H]4O)ncc3Cl)cc21 [Compound 272, 3-(6-(5-chloro-2-(((1S,3R,4S,5R)-4-hydroxy-6,8-dioxabicyclo[3.2.1]octan-3-yl)amino)pyrimidin-4-yl)-4-fluoro-1-isopropyl-1H-benzo[d]imidazol-2-yl)oxazolidin-2-one] | 0.04 to 0.15 µM | 0.45 to 3 µM |
| CC(C)n1c(C(C)(C)C(F)F)nc2c(F)cc(-c3nc(N[C@@H]4C[C@H]5CO[C@H](O5)[C@H]4O)ncc3Cl)cc21 [Compound 169, (1S,3R,4S,5R)-3-((5-chloro-4-(2-(1,1-difluoro-2-methylpropan-2-yl)-4-fluoro-1-isopropyl-1H-benzo[d]imidazol-6-yl)pyrimidin-2-yl)amino)-6,8-dioxabicyclo[3.2.1]octan-4-ol] | 0.04 to 0.15 µM | ≤ 0.12 µM |
| Cc1nc2c(F)cc(-c3nc(N[C@@H]4C[C@H]5CO[C@H](O5)[C@H]4O)ncc3Cl)cc2n1[C@@H]1CCC[C@@]1(C)O [Compound 182, (1S,3R,4S,5R)-3-((5-chloro-4-(4-fluoro-1-((1R,2R)-2-hydroxy-2-methylcyclopentyl)-2-methyl-1H-benzo[d]imidazol-6-yl)pyrimidin-2-yl)amino)-6,8-dioxabicyclo[3.2.1]octan-4-ol] | 0.15 to 1 µM | 0.12 to 0.45 µM |
| CC(C)n1c(C(C)(C)O)nc2c(F)cc(-c3nc(N[C@@H]4[C@H](C)[C@H]5CO[C@H](O5)[C@H]4O)ncc3Cl)cc21 [Compound 13, (1S,2S,3R,4S,5R)-3-((5-chloro-4-(4-fluoro-2-(2-hydroxypropan-2-yl)-1-isopropyl-1H-benzo[d]imidazol-6-yl)pyrimidin-2-yl)amino)-2-methyl-6,8-dioxabicyclo[3.2.1]octan-4-ol] | 0.04 to 0.15 µM | 0.12 to 0.45 µM |
